Assay [1] concerns PSA (prostate specific antigen) mRNA, AR target gene. In words: PSA mRNA expression in LNCaP⋅FGC cells. The conditions noted are these: 48 hours.
Method: For the analysis of anti-androgen activity, the LNCaP⋅FGC cells, an androgen-dependent prostate cancer cell line, were used and the level of mRNA of PSA (Prostate specific antigen), which is one of the AR target genes, in prostate cancer was measured.
In assay [2] the test system is mouse model with benign prostatic hyperplasia. In words: Prostate size in testosterone-induced benign prostatic hyperplasia animal model. Type of assay: in vivo, Sprague Dawley mice. As to the method:
First of all, the animals used for experiments were 11-week old male Sprague Dawley mice, which were purchased from Damul Science Co. (Daejeon, Republic of Korea). […] As a positive control group, the finasteride (2 mg/kg/day) was used and the Dendropanax morbifera extract was administered for 2 groups (0.5 and 2 mg/kg). 3 weeks after the drug administration, the mice were sacrificed and the results were observed. V, vehicle administration group; CTL, control group; TP, testosterone-propionate administration group; FS, finasteride administration group; […] CMC, carboxymethylcellulose administration group. […] From the previously described experiment schedule, blood and prostate were collected after measuring the body weight and sacrificing on the day after the last day of administration. The weight of removed prostate was measured after removing the surrounding fats and foreign substances and the weight ratio of prostate to body was calculated by the following equation and the result is listed in Table 4.

Assay [3] has as its system PSA (prostate specific antigen). In words: PSA content in blood of benign prostatic hyperplasia animal model (ELISA). Type of assay: in vivo, Sprague Dawley mice. The note with it: TP + drug 2 mg/kg. The source says: First of all, the animals used for experiments were 11-week old male Sprague Dawley mice, which were purchased from Damul Science Co. (Daejeon, Republic of Korea). They were provided with hard food and water frequently and were used in experiments after a week of adaptation period for laboratory environment and the animal experiments conducted herein were approved by Chonnam National University animal experiment ethics committee (IRB) (CNU IACUC-YB-R-2012-9).
The male Sprague Dawley mice were divided into the groups such as vehicle control group (V-CTL) that is an experimental group, the group administered with testosterone only (TP-CTL), the group administered with finasteride as positive control for testosterone (TP+FS) and the groups administered with Dendropanax morbifera (TP+DMH), and for each group, n was equal to 4 and overall experimental procedure is as illustrated in Table 3. […] As a positive control group, the finasteride (2 mg/kg/day) was used and the Dendropanax morbifera extract was administered for 2 groups (0.5 and 2 mg/kg).
From the sacrificed mouse in the above example, the plasma was isolated from blood and the content of PSA was determined. PSA measurement was conducted using ELISA (MyBiosource, Arizona, USA) according to the manufacturer's experimental protocol and presented as pg/mL content.

Values joined by “and” are separate entries in the source; they are usually repeats but may differ in a detail not shown here. Equal entries are not always repeated. “Also recorded” adds a separate entry of the source.

Regarding `C=C[C@H](O)C#CC#CC=CC(O)CCCCCCCC(=O)O` (stereo partly drawn) [HS3, 9,16S-dihydroxy-10,17-octadecadiene-12,14-diynoic acid], the “mRNA expression of PSA” value in assay [1] is reported as “inhibit”.

Turning to `CC(C)(C)NC(=O)[C@H]1CC[C@H]2[C@@H]3CC[C@H]4NC(=O)C=C[C@]4(C)[C@H]3CC[C@]12C` [FS, finasteride], in assay [2] (TP 3 mg/kg s.c. + drug 2 mg/kg p.o. daily for 3 weeks), the Weight of prostate is 0.95 ± 0.12 g. Further, the “prostate %/body weight (w/w)” value in assay [2] (TP + drug 2 mg/kg p.o.) is given as “*0.22 ± 0.018%”. For the same compound, the “% TP-CTL ratio” value in assay [2] (TP + drug 2 mg/kg p.o., relative to testosterone-only control) was 74.3% and 74.3 ± 3.2%. Further, in assay [2] (TP + drug 2 mg/kg p.o., relative to vehicle control), the “% V-CTL ratio” value is 185.7 ± 15.1%. For the same compound, the “% Vehicle control” value in assay [3] (blood PSA) stood at 18.7 ± 5.0%. In addition, in assay [3] (blood PSA, relative to TP (3 mg/kg) only), the “% TP control” value came out at 34.6%. Also, in assay [3] (plasma), the PSA entry is on record as “*323.0 ± 85.0 pg/mL”.

In the case of `C=CC(O)C#CC#CC/C=C\CCCCCCCC(=O)O` (stereo not shown) [HS7, (9Z)-16-hydroxy-9,17-octadecadiene-12,14-diynoic acid], the “mRNA expression of PSA” value in assay [1] is given as “inhibit; also recorded: most effective”.

Regarding `C=CC(O)C#CC#CC=C[C@H](O)CCCCCCCC(=O)O` (stereo partly drawn) [HS5, 9,16R-dihydroxy-10,17-octadecadiene-12,14-diynoic acid], the “mRNA expression of PSA” value in assay [1] is listed as “inhibit”.

Values taken from patent US10130668B2, “Composition comprising Dendropanax morbifera extract or compound derived therefrom as active ingredient for preventing and treating benign prostatic hyperplasia” (priority 2012, dated 2018).
